Key:
Format in all cases: in vivo
[1] = tested on: Surinam grass (Brachiaria decumbens); assay: Test B postemergence; settings: 13 to 15 days
In short: (§1)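 Pre: seeded pots sprayed, chemical in non-phytotoxic solvent/surfactant mix. Post: plants 2–18 cm, 1–4 leaf, same formulation. Greenhouse 13–15 d; visual % control vs untreated, 0–100 scale.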

[2] = tested on: barnyardgrass (Echinochloa crus-galli); assay: Test B postemergence; settings: 13 to 15 days
In short: as §1

[3] = tested on: blackgrass (Alopecurus myosuroides); assay: Test B postemergence; settings: 13 to 15 days
In short: as §1

[4] = tested on: corn (Zea mays); assay: Test B postemergence; settings: 13 to 15 days
In short: as §1

[5] = tested on: giant foxtail (Setaria faberii); assay: Test B postemergence; settings: 13 to 15 days
In short: as §1

[6] = tested on: morning glory (Ipomoea hederacea); assay: Test B postemergence; settings: 13 to 15 days
In short: as §1

[7] = tested on: pigweed (Amaranthus retroflexus); assay: Test B postemergence; settings: 13 to 15 days
In short: as §1

[8] = tested on: velvetleaf (Abutilon theophrasti); assay: Test B postemergence; settings: 13 to 15 days
In short: as §1

[9] = tested on: wheat (Triticum aestivum); assay: Test B postemergence; settings: 13 to 15 days
In short: as §1

[10] = tested on: Surinam grass (Brachiaria decumbens); assay: Test B preemergence
In short: as §1

[11] = tested on: barnyardgrass (Echinochloa crus-galli); assay: Test B preemergence
In short: as §1

[12] = tested on: cocklebur (Xanthium strumarium); assay: Test B preemergence
In short: as §1

[13] = tested on: corn (Zea mays); assay: Test B preemergence
In short: as §1

[14] = tested on: crabgrass (Digitaria sanguinalis); assay: Test B preemergence
In short: as §1

[15] = tested on: giant foxtail (Setaria faberii); assay: Test B preemergence
In short: as §1

[16] = tested on: lambsquarters (Chenopodium album); assay: Test B preemergence
In short: as §1

[17] = tested on: morning glory (Ipomoea hederacea); assay: Test B preemergence
In short: as §1

[18] = tested on: pigweed (Amaranthus retroflexus); assay: Test B preemergence
In short: as §1

[19] = tested on: rice (Oryza saliva); assay: Test B preemergence
In short: as §1

[20] = tested on: velvetleaf (Abutilon theophrasti); assay: Test B preemergence
In short: as §1

[21] = tested on: barnyardgrass (Echinochloa crus-galli); assay: Test C flooded paddy test; settings: for Barnyardgrass plant response rating: Flooded Paddy, scale 0 to 100, 0 no effect, 100 complete control; for Plant response rating, Barnyardgrass: flooded paddy test, scale 0 to 100 (0 no effect, 100 complete control)
In short: (§2)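 Visually assessed vs untreated controls 12–14 d post-treatment (greenhouse). Flooded paddy plants were at the 2-leaf stage; scale 0 = no effect, 100 = complete control.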

[22] = tested on: duck salad (Heteranthera limosa); assay: Test C flooded paddy test; settings: for Ducksalad plant response rating: Flooded Paddy, scale 0 to 100, 0 no effect, 100 complete control; for Plant response rating, Ducksalad: flooded paddy test, scale 0 to 100 (0 no effect, 100 complete control)
In short: as §2

[23] = tested on: rice (Oryza saliva); assay: Test C flooded paddy test; settings: for Rice plant response rating: Flooded Paddy, scale 0 to 100, 0 no effect, 100 complete control; for Plant response rating, Rice: flooded paddy test, scale 0 to 100 (0 no effect, 100 complete control)
In short: as §2

[24] = tested on: smallflower flatsedge (Cyperus difformis); assay: Test C flooded paddy test; settings: for Flatsedge plant response rating: Flooded Paddy, scale 0 to 100, 0 no effect, 100 complete control; for Plant response rating, Flatsedge: flooded paddy test, scale 0 to 100 (0 no effect, 100 complete control)
In short: as §2

[25] = tested on: Nightshade; assay: Test C preemergence; settings: visual evaluation after 12 to 14 days
[26] = tested on: Sunflower; assay: Test C preemergence; settings: scale 0 to 100, 0 no effect, 100 complete control
[27] = Rate 125 g/ha, scale 0 (no effect) to 100 (complete control)
[28] = Rate 500 g/ha, scale 0 to 100, 0 is no effect, 100 is complete control
[29] = Preemergence, Rate 500 g/ha, scale 0 to 100, 0 no effect, 100 complete control
[30] = preemergence, Rate 125 g/ha, scale of 0 to 100 where 0 is no effect and 100 is complete control, 13 to 15 days

## CC1(c2ccn(C3OCN(c4cccc(C(F)(F)F)c4)C3=O)n2)CC1 (stereo not shown) [Compound 62]
[1]; [27]
  Plant response rating, Surinam grass: 0
[1]; [28]
  Plant response rating, Surinam grass: 0
[2]; [27]
  Plant response rating, Barnyardgrass: 0
[2]; [28]
  Plant response rating, Barnyardgrass: 0
[3]; [27]
  Plant response rating, Blackgrass: 0
[3]; [28]
  Plant response rating, Blackgrass: 0
[4]; [27]
  Plant response rating, Corn: 0
[4]; [28]
  Plant response rating, Corn: 0
[5]; [27]
  Plant response rating, Foxtail, Giant: 0
[5]; [28]
  Plant response rating, Foxtail, Giant: 0
[6]; [27]
  Plant response rating, Morningglory: 0
[6]; [28]
  Plant response rating, Morningglory: 0
[7]; [27]
  Plant response rating, Pigweed: 0
[7]; [28]
  Plant response rating, Pigweed: 40
[8]; [27]
  Plant response rating, Velvetleaf: 0
[8]; [28]
  Plant response rating, Velvetleaf: 0
[9]; [27]
  Plant response rating, Wheat: 0
[9]; [28]
  Plant response rating, Wheat: 0
[10]; [29]
  Plant response rating, Surinam grass: 0
[10]; [30]
  Plant response rating, Surinam grass: 0
[11]; [29]
  Plant response rating, Barnyardgrass: 90
[11]; [30]
  Plant response rating, Barnyardgrass: 0
[12]; [29]
  Plant response rating, Cocklebur: 0
[12]; [30]
  Plant response rating, Cocklebur: 0
[13]; [29]
  Plant response rating, Corn: 0
[13]; [30]
  Plant response rating, Corn: 0
[14]; [29]
  Plant response rating, Crabgrass: 90
[14]; [30]
  Plant response rating, Crabgrass: 0
[15]; [29]
  Plant response rating, Foxtail, Giant: 80
[15]; [30]
  Plant response rating, Foxtail, Giant: 0
[16]; [29]
  Plant response rating, Lambsquarters: 100
[16]; [30]
  Plant response rating, Lambsquarters: 100
[17]; [29]
  Plant response rating, Morningglory: 0
[17]; [30]
  Plant response rating, Morningglory: 0
[18]; [29]
  Plant response rating, Pigweed: 100
[18]; [30]
  Plant response rating, Pigweed: 100
[19]; [29]
  Plant response rating, Rice: 30
[19]; [30]
  Plant response rating, Rice: 0
[20]; [29]
  Plant response rating, Velvetleaf: 0
[20]; [30]
  Plant response rating, Velvetleaf: 0
[21]; Rate 250 g/ha
  Barnyardgrass plant response rating: 20
[21]; Rate 500 g/ha
  Barnyardgrass plant response rating: 80
[21]; Rate 62 g/ha
  Plant response rating, Barnyardgrass: 0
[21]; Rate 125 g/ha
  Plant response rating, Barnyardgrass: 20
[22]; Rate 250 g/ha
  Ducksalad plant response rating: 0
[22]; Rate 500 g/ha
  Ducksalad plant response rating: 0
[22]; Rate 62 g/ha
  Plant response rating, Ducksalad: 0
[22]; Rate 125 g/ha
  Plant response rating, Ducksalad: 0
[23]; Rate 250 g/ha
  Rice plant response rating: 50
[23]; Rate 500 g/ha
  Rice plant response rating: 50
[23]; Rate 62 g/ha
  Plant response rating, Rice: 0
[23]; Rate 125 g/ha
  Plant response rating, Rice: 0
[24]; Rate 250 g/ha
  Flatsedge plant response rating: 90
[24]; Rate 500 g/ha
  Flatsedge plant response rating: 100
[24]; Rate 62 g/ha
  Plant response rating, Flatsedge: 0
[24]; Rate 125 g/ha
  Plant response rating, Flatsedge: 90
[25]; Rate 250 g/ha
  Plant response rating (0 to 100), Nightshade: 0
[25]; Rate 500 g/ha
  Plant response rating (0 to 100), Nightshade: 0
[26]; Rate 125 g/ha
  Plant response rating, Sunflower: 0

## CSc1cccc(N2CCC(n3ccc(C(C)(C)C)n3)C2=O)c1 (stereo not shown) [Compound 86]
[1]; [27]
  Plant response rating, Surinam grass: 0
[1]; [28]
  Plant response rating, Surinam grass: 0
[2]; [27]
  Plant response rating, Barnyardgrass: 0
[2]; [28]
  Plant response rating, Barnyardgrass: 0
[3]; [27]
  Plant response rating, Blackgrass: 0
[3]; [28]
  Plant response rating, Blackgrass: 0
[4]; [27]
  Plant response rating, Corn: 0
[4]; [28]
  Plant response rating, Corn: 0
[5]; [27]
  Plant response rating, Foxtail, Giant: 0
[5]; [28]
  Plant response rating, Foxtail, Giant: 0
[6]; [27]
  Plant response rating, Morningglory: 0
[6]; [28]
  Plant response rating, Morningglory: 0
[7]; [27]
  Plant response rating, Pigweed: 0
[7]; [28]
  Plant response rating, Pigweed: 0
[8]; [27]
  Plant response rating, Velvetleaf: 0
[8]; [28]
  Plant response rating, Velvetleaf: 0
[9]; [27]
  Plant response rating, Wheat: 0
[9]; [28]
  Plant response rating, Wheat: 0
[10]; [29]
  Plant response rating, Surinam grass: 60
[10]; [30]
  Plant response rating, Surinam grass: 0
[11]; [29]
  Plant response rating, Barnyardgrass: 100
[11]; [30]
  Plant response rating, Barnyardgrass: 0
[12]; [29]
  Plant response rating, Cocklebur: 0
[12]; [30]
  Plant response rating, Cocklebur: 0
[13]; [29]
  Plant response rating, Corn: 20
[13]; [30]
  Plant response rating, Corn: 0
[14]; [29]
  Plant response rating, Crabgrass: 100
[14]; [30]
  Plant response rating, Crabgrass: 0
[15]; [29]
  Plant response rating, Foxtail, Giant: 100
[15]; [30]
  Plant response rating, Foxtail, Giant: 80
[16]; [29]
  Plant response rating, Lambsquarters: 100
[16]; [30]
  Plant response rating, Lambsquarters: 100
[17]; [29]
  Plant response rating, Morningglory: 0
[17]; [30]
  Plant response rating, Morningglory: 0
[18]; [29]
  Plant response rating, Pigweed: 100
[18]; [30]
  Plant response rating, Pigweed: 100
[19]; [29]
  Plant response rating, Rice: 0
[19]; [30]
  Plant response rating, Rice: 0
[20]; [29]
  Plant response rating, Velvetleaf: 0
[20]; [30]
  Plant response rating, Velvetleaf: 0
[21]; Rate 250 g/ha
  Barnyardgrass plant response rating: 100
[21]; Rate 500 g/ha
  Barnyardgrass plant response rating: 100
[21]; Rate 62 g/ha
  Plant response rating, Barnyardgrass: 0
[21]; Rate 125 g/ha
  Plant response rating, Barnyardgrass: 30
[22]; Rate 250 g/ha
  Ducksalad plant response rating: 100
[22]; Rate 62 g/ha
  Plant response rating, Ducksalad: 0
[22]; Rate 125 g/ha
  Plant response rating, Ducksalad: 0
[23]; Rate 250 g/ha
  Rice plant response rating: 0
[23]; Rate 500 g/ha
  Rice plant response rating: 20
[23]; Rate 62 g/ha
  Plant response rating, Rice: 0
[23]; Rate 125 g/ha
  Plant response rating, Rice: 0
[24]; Rate 250 g/ha
  Flatsedge plant response rating: 70
[24]; Rate 62 g/ha
  Plant response rating, Flatsedge: 0
[24]; Rate 125 g/ha
  Plant response rating, Flatsedge: 0
[25]; Rate 500 g/ha
  Plant response rating (0 to 100), Nightshade: 10
[26]; Rate 250 g/ha
  Plant response rating, Sunflower: 20

Source: patent publication US7138361B2, “Herbicidal heterocycles” (E. I. du Pont de Nemours and Company, priority 2000, dated 2006)
